Assay results from patent US10738028B2, “Spiro three-membered ring, spiro five-membered ring peptide deformylase inhibitor and use thereof in antibacteria and anti-tumor” (priority 2016, dated 2020).

Key:
Assay type in all cases: cell-based
[1] = system: methicillin-sensitive Staphylococcus epidermidis (MSSE); assay: MIC, two-fold agar dilution (CLSI), clinical isolates
How it was run: (§1)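 Test samples were assayed by the CLSI-recommended two-fold agar dilution method, and the minimum inhibitory concentration against each tested strain was determined.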

[2] = system: Enterococcus faecium (EFM); assay: as above
How it was run: as §1

[3] = system: methicillin-resistant Staphylococcus epidermidis (MRSE); assay: as above
How it was run: as §1

[4] = system: Streptococcus pneoumoniae (SPN); assay: as above
How it was run: as §1

[5] = system: methicillin-resistant Staphylococcus aureus (MRSA); assay: as above
How it was run: as §1

[6] = system: Escherichia coli (including ESBLs, non-ESBLs); assay: as above
How it was run: as §1

[7] = system: Moraxella catarrhalis (BCA); assay: as above
How it was run: as §1

[8] = system: Enterococcus faecalis (EFA); assay: as above
How it was run: as §1

[9] = system: methicillin-sensitive Staphylococcus aureus (MSSA); assay: as above
How it was run: as §1

[10] = system: HCT-116 colorectal cancer cell line; assay: CCK-8 proliferation inhibition; settings: Homo sapiens, HCT-116, 72 h, concentration of 30 μM; 72 hours; CCK-8; read-out: HCT116 inhibition rate/%
How it was run: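 Proliferation over 72 hours of compound treatment was measured with CCK-8 against a 1‰ DMSO control.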

Compound: O=C(C[C@@H](CC1CCCC1)C(=O)N1CC2(CC2)C[C@H]1C(=O)Nc1ncco1)NO [Example 69]
- Anti-bacterial activity (MIC), strain MSSE 15-3 ([1]; clinical isolate MSSE 15-3): 1 µg/mL
- Anti-bacterial activity (MIC), strain MSSE 15-4 ([1]; clinical isolate MSSE 15-4): 8 µg/mL
- Anti-bacterial activity (MIC), strain MSSE 15-5 ([1]; clinical isolate MSSE 15-5): 8 µg/mL
- Anti-bacterial activity (MIC), strain MSSE 15-6 ([1]; clinical isolate MSSE 15-6): 2 µg/mL
- Anti-bacterial activity (MIC) ([2]; strain EFM 15-1): > 32 µg/mL
- Anti-bacterial activity (MIC) ([2]; strain EFM 15-2): > 32 µg/mL
- Anti-bacterial activity (MIC) ([2]; strain EFM 15-3): > 32 µg/mL
- Anti-bacterial activity (MIC) ([2]; strain EFM 15-4): > 32 µg/mL
- Anti-bacterial activity (MIC) ([2]; strain EFM 15-5): 8 µg/mL
- Anti-bacterial activity (MIC) ([2]; strain EFM 15-6): 8 µg/mL
- Anti-bacterial activity (MIC), strain MRSE 15-1 ([3]; clinical isolate MRSE 15-1): 8 µg/mL
- Anti-bacterial activity (MIC), strain MRSE 15-2 ([3]; clinical isolate MRSE 15-2): 8 µg/mL
- Anti-bacterial activity (MIC), strain MRSE 15-3 ([3]; clinical isolate MRSE 15-3): 8 µg/mL
- Anti-bacterial activity (MIC), strain MRSE 15-7 ([3]; clinical isolate MRSE 15-7): 8 µg/mL
- Anti-bacterial activity (MIC) ([4]; strain SPN 16-2): 2 µg/mL
- Anti-bacterial activity (MIC) ([4]; strain SPN 16-4): 1 µg/mL
- Anti-bacterial activity (MIC), strain MRSA 15-1 ([5]; clinical isolate MRSA 15-1): 2 µg/mL
- Anti-bacterial activity (MIC), strain MRSA 15-2 ([5]; clinical isolate MRSA 15-2): 8 µg/mL
- Anti-bacterial activity (MIC), strain MRSA 15-3 ([5]; clinical isolate MRSA 15-3): 2 µg/mL
- Anti-bacterial activity (MIC), strain MRSA 15-4 ([5]; clinical isolate MRSA 15-4): 8 µg/mL
- Anti-bacterial activity (MIC), strain ECO+ 15-1 ([6]; clinical isolate ECO+ 15-1): 32 µg/mL
- Anti-bacterial activity (MIC), strain ECO+ 15-2 ([6]; clinical isolate ECO+ 15-2): 32 µg/mL
- Anti-bacterial activity (MIC), strain ECO+ 15-3 ([6]; clinical isolate ECO+ 15-3): 32 µg/mL
- Anti-bacterial activity (MIC), strain ECO+ 15-4 ([6]; clinical isolate ECO+ 15-4): > 32 µg/mL
- Anti-bacterial activity (MIC), strain ECO− 15-1 ([6]; clinical isolate ECO− 15-1): 32 µg/mL
- Anti-bacterial activity (MIC), strain ECO− 15-2 ([6]; clinical isolate ECO− 15-2): 32 µg/mL
- Anti-bacterial activity (MIC), strain ECO− 15-3 ([6]; clinical isolate ECO− 15-3): 32 µg/mL
- Anti-bacterial activity (MIC), strain ECO− 15-4 ([6]; clinical isolate ECO− 15-4): 32 µg/mL
- Anti-bacterial activity (MIC) ([7]; strain BCA 14-1): > 32 µg/mL
- Anti-bacterial activity (MIC) ([7]; strain BCA 14-4): > 32 µg/mL
- Anti-bacterial activity (MIC) ([7]; strain BCA 14-5): 8 µg/mL
- Anti-bacterial activity (MIC) ([7]; strain BCA 14-6): > 32 µg/mL
- Anti-bacterial activity (MIC) ([7]; strain BCA 14-7): > 32 µg/mL
- Anti-bacterial activity (MIC) ([7]; strain BCA 14-8): > 32 µg/mL
- Anti-bacterial activity (MIC) ([7]; strain BCA 14-10): 4 µg/mL
- Anti-bacterial activity (MIC) ([8]; strain EFA 15-1): > 32 µg/mL
- Anti-bacterial activity (MIC) ([8]; strain EFA 15-2): > 32 µg/mL
- Anti-bacterial activity (MIC) ([8]; strain EFA 15-3): > 32 µg/mL
- Anti-bacterial activity (MIC) ([8]; strain EFA 15-4): > 32 µg/mL
- Anti-bacterial activity (MIC) ([8]; strain EFA 15-5): > 32 µg/mL
- Anti-bacterial activity (MIC) ([8]; strain EFA 15-6): > 32 µg/mL
- Anti-bacterial activity (MIC) ([8]; strain EFA 15-9): > 32 µg/mL
- Anti-bacterial activity (MIC), strain MSSA 15-3 ([9]; clinical isolate MSSA 15-3): 8 µg/mL
- Anti-bacterial activity (MIC), strain MSSA 15-4 ([9]; clinical isolate MSSA 15-4): 2 µg/mL
- Anti-bacterial activity (MIC), strain MSSA 15-5 ([9]; clinical isolate MSSA 15-5): 2 µg/mL
- Anti-bacterial activity (MIC), strain MSSA 15-6 ([9]; clinical isolate MSSA 15-6): > 32 µg/mL
- inhibition at 30 µM [10]: 15%
